Data on 18 compounds can be found in paper PMC10945501, “Development and In Vivo Evaluation of Small-Molecule Ligands for Positron Emission Tomography of Immune Checkpoint Modulation Targeting Programmed Cell Death 1 Ligand 1” (Journal of Medicinal Chemistry, 2024).

The structures appear in SMILES notation. Where two headings read alike, the source gives them in different places. Bounds are passed on as bounds.

In one data set the target is T1, human PD-L1 (Homo sapiens, UniProt Q9NZQ7).
T1 construct: purchased Cisbio Bioassays SAS, Codolet, France 64PD1PEG
T1 sequence (Q9NZQ7 19-238 limits assumed): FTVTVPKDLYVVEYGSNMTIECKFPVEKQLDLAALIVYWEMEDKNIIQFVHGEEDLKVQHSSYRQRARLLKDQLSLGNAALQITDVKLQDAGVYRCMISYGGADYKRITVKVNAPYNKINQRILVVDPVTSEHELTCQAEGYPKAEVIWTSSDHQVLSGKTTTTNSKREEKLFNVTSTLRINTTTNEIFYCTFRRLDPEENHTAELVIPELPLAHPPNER
In words: HTRF PD-1/PD-L1 binding assay (cell-free). To be noted: for fold decrease in affinity by methylation at R3*: pairs 4c vs 5a, 4c vs 5b, 4e vs 5c, 4e vs 5d.

Data set [1] in a line: Lipophilicity by HPLC method (μHPLC logD). To be noted: for μHPLC logD: pH 7.4; for chromatographic logD: pH 7.4, μHPLC logD.
[2] abbreviates: cell-free competitive PD-1/PD-L1 HTRF, mean ± SD, read-out: IC50 (hPD-L1 binding affinity, HTRF).
[3] abbreviates: no full dose–response curves observed, values are relative IC50, read-out: relative IC50 (hPD-L1 binding affinity, HTRF).

Consider `CC(=O)NCCNCc1cc(Cl)c(OCc2cccc(-c3ccc4c(c3)OCCO4)c2C)cc1OCc1ccnc(C#N)c1` [Compound 4d, N-(2-((5-Chloro-2-((2-cyanopyridin-4-yl)methoxy)-4-((3-(2,3-dihydrobenzo [b][1,4]dioxin-6-yl)-2-methylbenzyl)oxy)benzyl)amino)ethyl)acetamide], for which the IC50 on human PD-L1 (setting [2]) turned out to be 9.2 ± 0.6 nM. For the same compound, in data set [1], the “μHPLC logD” value was 4.5 ± 0.2 and the chromatographic logD was determined as 4.45 ± 0.2.
`COCCNCc1cc(Cl)c(OCc2cccc(-c3ccc4c(c3)OCCO4)c2C)cc1OCc1ccnc(C#N)c1` [Compound 5d, 4-((4-Chloro-5-((3-(2,3-dihydrobenzo[b][1,4]dioxin-6-yl)-2-methylbenzyl)oxy)-2-(((2-methoxyethyl)amino)methyl)phenoxy)methyl)picolinonitrile]: the “fold decrease in affinity by methylation at R3*” value at human PD-L1 (IC50 ratio) worked out at 2.42 fold. For the same compound, on human PD-L1 (setting [2]), the IC50 stood at 19 ± 4 nM. Also, in data set [1], the “μHPLC logD” value was 5.1 ± 0.3 and the chromatographic logD was 5.09 ± 0.29.
As to `Cc1c(COc2cc(OCc3ccnc(C#N)c3)c(CNCCOCCOCCOCCOCCC(=O)O)cc2Cl)cccc1-c1ccc2c(c1)OCCO2` [Compound 4g, 1-(5-Chloro-2-((2-cyanopyridin-4-yl)methoxy)-4-((3-(2,3-dihydrobenzo [b][1,4]dioxin-6-yl)-2-methylbenzyl)oxy)phenyl)-5,8,11,14-tetraoxa-2-azaheptadecan-17-oic Acid], the IC50 at human PD-L1 (setting [2]) amounted to 46 ± 5 nM. This compound also gave a chromatographic logD in data set [1] of 3.42 ± 0.05.
For the compound `COC(=O)[C@@H](CO)NCc1cc(Cl)c(OCc2cccc(-c3ccc4c(c3)OCCO4)c2C)cc1OCc1ccnc(C#N)c1` [Compound 5b, Methyl (5-Chloro-2-((2-cyanopyridin-4-yl)methoxy)-4-((3-(2,3-dihydrobenzo[b][1,4]dioxin-6-yl)-2-methylbenzyl)oxy)benzyl)-D-serinate], the “fold decrease in affinity by methylation at R3*” value at human PD-L1 (IC50 ratio) is listed as 4.98 fold. For the same compound, the half-maximal inhibitory concentration (IC50) at human PD-L1 (setting [2]) amounted to 30 ± 8 nM. In data set [1], the “μHPLC logD” value stood at 4.9 ± 0.3 and the chromatographic logD came to 4.88 ± 0.26.
With `Cc1c(COc2cc(OCc3cocn3)c(C=O)cc2Cl)cccc1-c1ccc2c(c1)OCCO2` [Compound 3d, 5-Chloro-4-((3-(2,3-dihydrobenzo[b][1,4]dioxin-6-yl)-2-methylbenzyl)oxy)-2-(oxazol-4-ylmethoxy)benzaldehyde], on human PD-L1 (setting [2]), the IC50 is greater than 5000 nM.
`CC(=O)NCCNCc1cc(Cl)c(OCc2cccc(-c3ccc4c(c3)OCCO4)c2C)cc1OCc1cccc(C#N)c1` [Compound 4j, N-(2-((5-Chloro-2-((3-cyanobenzyl)oxy)-4-((3-(2,3-dihydrobenzo[b][1,4]dioxin-6-yl)-2-methylbenzyl)oxy)benzyl)amino)ethyl)acetamide]: on human PD-L1 (setting [2]), the half-inhibitory concentration (IC50) came out at 11 ± 1 nM. In data set [1], the “μHPLC logD” value was 4.7 ± 0.2 and the chromatographic logD is 4.73 ± 0.24.
For `CC(=O)NCCNCc1cc(Cl)c(OCc2cccc(-c3ccc4c(c3)OCCO4)c2C)cc1OCc1cocn1` [Compound 4k, N-(2-((5-Chloro-4-((3-(2,3-dihydrobenzo[b][1,4]dioxin-6-yl)-2-methylbenzyl)oxy)-2-(oxazol-4-ylmethoxy)benzyl)amino)ethyl)acetamide], in that order: 50 ± 7 nM, 4.2 ± 0.2 and 4.21 ± 0.16.
Consider `Cc1c(COc2cc(OCc3ccnc(C#N)c3)c(CN3CCOC3CF)cc2Cl)cccc1-c1ccc2c(c1)OCCO2` (centres unmarked) [Compound 5g, 4-((4-Chloro-5-((3-(2,3-dihydrobenzo[b][1,4]dioxin-6-yl)-2-methylbenzyl)oxy)-2-((2-(fluoromethyl)oxazolidin-3-yl)methyl)phenoxy)methyl)picolinonitrile], for which the IC50 at human PD-L1 (setting [2]) was 12 ± 2 nM. Besides, the chromatographic logD in data set [1] is greater than 5.75.
With `Cc1c(COc2cc(OCc3ccnc(C#N)c3)c(CN(C)CCO)cc2Cl)cccc1-n1cccc1` [Compound 5f, 4-((4-Chloro-2-(((2-hydroxyethyl)(methyl)amino)methyl)-5-((2-methyl-3-(1H-pyrrol-1-yl)benzyl)oxy)phenoxy)methyl)picolinonitrile], the “fold reduction of affinity, pyrrole at R1 vs 1,4-benzodioxanyl analogue” value on human PD-L1 (IC50 ratio, pairs 4c vs 4m, 4e vs 4n, 4f vs 4o, 5c vs 5f) came out at 1.61 fold. Also, the IC50 at human PD-L1 (setting [2]) turned out to be 16 ± 4 nM. Moreover, in data set [1], the “μHPLC logD” value is 4.5 ± 0.2 and the chromatographic logD was 4.54 ± 0.21.
As for `CC(=O)N1CCN(Cc2cc(Cl)c(OCc3cccc(-c4ccc5c(c4)OCCO5)c3C)cc2OCc2cccc(C#N)c2)C1=O` [Compound 5e, 3-((2-((3-Acetyl-2-oxoimidazolidin-1-yl)methyl)-4-chloro-5-((3-(2,3-dihydrobenzo[b][1,4]dioxin-6-yl)-2-methylbenzyl)oxy)phenoxy)methyl)benzonitrile], the IC50 on human PD-L1 (setting [2]) was 589 ± 178 nM. Further, in data set [1], the “μHPLC logD” value was found to be 5.6 ± 0.4 and the chromatographic logD amounted to 5.61 ± 0.37.
For `Cc1c(COc2cc(OCc3ccnc(C#N)c3)c(CNCCO)cc2Cl)cccc1-c1ccc2c(c1)OCCO2` [Compound 4e, 4-((4-Chloro-5-((3-(2,3-dihydrobenzo[b][1,4]dioxin-6-yl)-2-methylbenzyl)oxy)-2-(((2-hydroxyethyl)amino)methyl)phenoxy)methyl)picolinonitrile], at human PD-L1 (setting [2]), the IC50 was 7.7 ± 0.6 nM. Also, in data set [1], the “μHPLC logD” value was determined as 4.7 ± 0.2 and the chromatographic logD came out at 4.71 ± 0.24.
As for `Cc1c(COc2cc(OCc3cccc(C#N)c3)c(C=O)cc2Cl)cccc1-c1ccc2c(c1)OCCO2` [Compound 3c, 3-((4-Chloro-5-((3-(2,3-dihydrobenzo[b][1,4]dioxin-6-yl)-2-methylbenzyl)oxy)-2-formylphenoxy)methyl)benzonitrile], the IC50 at human PD-L1 (setting [2]) was greater than 5000 nM.
For the compound `Cc1c(COc2cc(O)c(C=O)cc2Cl)cccc1-c1ccc2c(c1)OCCO2` [Compound 2c, 5-Chloro-4-((3-(2,3-dihydrobenzo[b][1,4]dioxin-6-yl)-2-methylbenzyl)oxy)-2-hydroxybenzaldehyde], the IC50 at human PD-L1 (setting [2]) was greater than 100000 nM.
`CC(=O)NCCN(Cc1cc(Cl)c(OCc2cccc(-c3ccc4c(c3)OCCO4)c2C)cc1OCc1cccc(C#N)c1)C(=O)OCCF` [Compound 5j, 2-Fluoroethyl (2-acetamidoethyl)(5-chloro-2-((3-cyanobenzyl)oxy)-4-((3-(2,3-dihydrobenzo[b][1,4]dioxin-6-yl)-2-methylbenzyl)oxy)benzyl)carbamate]: the “fold decrease in affinity by fluoroethylation / fluoroethyl carbamylation at R3*” value on human PD-L1 (IC50 ratio, pairs 4f vs 5h, 4j vs 5j) came out at 160 fold. In addition, the IC50 at human PD-L1 (setting [2]) came to 1700 nM. Also, the chromatographic logD in data set [1] came to 4.9 ± 0.3.
Take `Cc1c(COc2cc(OCc3ccnc(C#N)c3)c(C=O)cc2Cl)cccc1-n1cccc1` [Compound 3e, 4-((4-Chloro-2-formyl-5-((2-methyl-3-(1H-pyrrol-1-yl)benzyl)oxy)phenoxy)methyl)picolinonitrile]: the IC50 at human PD-L1 (setting [2]) was greater than 5000 nM.
As to `Cc1c(COc2cc(O)c(C=O)cc2Cl)cccc1-c1ccccc1` [Compound 2b, 5-Chloro-2-hydroxy-4-((2-methyl-[1,1′-biphenyl]-3-yl)methoxy)benzaldehyde], on human PD-L1 (setting [2]), the IC50 is greater than 100000 nM.
For `Cc1c(COc2cc(OCc3cccc(C#N)c3)c(C=O)cc2Cl)cccc1-c1ccccc1` [Compound 3a, 3-((4-Chloro-2-formyl-5-((2-methyl-[1,1′-biphenyl]-3-yl)methoxy)phenoxy)methyl)benzonitrile], the IC50 at human PD-L1 (setting [3]) worked out at 1300 nM.
As for `Cc1c(COc2cc(OCc3ccnc(C#N)c3)c(C=O)cc2Cl)cccc1-c1ccc2c(c1)OCCO2` [Compound 3b, 4-((4-Chloro-5-((3-(2,3-dihydrobenzo[b][1,4]dioxin-6-yl)-2-methylbenzyl)oxy)-2-formylphenoxy)methyl)picolinonitrile], at human PD-L1 (setting [3]), the IC50 stood at 207 ± 340 nM.

Usually IC50 stands for the concentration at which inhibition is half-maximal. The chromatographic logD is lipophilicity estimated from chromatographic retention. A high value points to a more lipophilic compound.
